Test results taken from article PMC12767106, “In Situ Assembly of Transformable Monopeptide on Activated Neutrophils Attenuates NETs‐Induced Hepatocellular Carcinoma Metastasis by Disrupting NE Nuclear Translocation” (Advanced Science, 2025).

Experiments:
[1] = test system: Hepa1-6 cells; test: Scratch (wound healing) assay; format: cell-based, mouse; settings: 24 h, medium from activated neutrophils treated with NPs, mean ± s.d., n = 3
Protocol: Cell migration and invasion assay
To produce cell gaps for cell scratch tests, Hepa1-6/luc cells were injected into culture inserts (IBIDI, Germany).
After 24 hours, the cells were treated with Resting neutrophils, Control, NFTP-NPs, FTP-NPs, and NEi groups.
Cell migration was monitored during the overnight culture of the cells. […]
Matrigel tube formation assay
Murine C166 endothelial cells (3×10^4cells/well) were placed on 96-well plates coated with Matrigel (356231,
Corning, New York, USA) and incubated with various treatments. […]
In vitro permeability assays and trans-endothelial invasion assays
For in vitro permeability assays, C166 cells were treated with Resting neutrophils, Control, NFTP-NPs, FTP-
NPs, and NEi groups for 48 h to form an endothelial monolayer, and then Evans Blue (PHYGENE, China) was
added to the upper layer of the transwell filters (0.4 μm, Corning). […]
All the experiments were performed thrice. […]

[2] = test system: subcutaneous Hepa1-6/luc tumors; test: Immune profiling of tumors by flow cytometry, plasma cytokines by ELISA; format: in vivo, mouse; settings: tumor-bearing mice
Protocol: Submitted to Advanced Science
Total RNA was extracted and purified using a miRNeasy Mini Kit (FOREGENE, China). Quantitative real-time polymerase chain reaction (qRT-PCR) was performed in triplicate in the ABI 7500 fast real-time PCR System (Applied Biosystems, USA). The mRNAs were normalized with 18s. The following primers were used for PCR detection: E-cadherin, N-cadherin, Vimentin, and α-catenin.
Western blot analysis was performed to evaluate the levels of relative proteins in Hepa1-6/luc cells and Neutrophils.38 To evaluate NETs release, the neutrophils were exposed to PMA, PMA+NFTP -NPs, and PMA+FTP-NPs for 12 h. Following treatment, the cells underwent three PBS washes for WB to measure the expression of CitH3 proteins (Cat. no. ab5103, Abcam, Cambridge, England , UK). Furthermore, to evaluate EMT of Hepa1-6/luc cells, the cells underwent three PBS washes for WB to measure the expression of E - cadherin (Abmart, China), N-cadherin (Abmart, China), Vimentin (Abmart, China) , and β-catenin (Abmart, […]
In vivo subcutaneously implanted tumor models
The C57BL/6J mice with subcutaneous Hepa1-6/luc xenografts (grew up to roughly 100 mm 3) were separated into four groups according to the different treatments to perform the in vivo tumor therapy. PBS, NFTP-NPs, FTP-NPs, and NEi (300 µM in PBS: DMSO = 95:5, 200 µL) were administered intravenously (i.v.) five times every two days to mice. aPD-1 (BE0146, Bio X Cell, USA) was injected intraperitoneally into each mouse at 200μg once every 4 days for 3 doses. Throughout the experiment, the tumor volumes and body weight were measured once every four days. The formula tumor volume=length*1/2 width2 was used to get the tumor volume; at the same time, IVIS (AniView SE, Guangzhou Biolight Biotechnology Co., Ltd) was used to calculate bioluminescence signals in vivo. After therapy (day 20), major organs and blood samples were taken for histological and biochemical investigation as part of a safety assessment. […]
TNF-α, were measured using commercially available ELISA kits to assess the immune activation induced by […]

**Q.** For PpIX-GFFVLK-EAIPMSIPPEVK [FTP-NPs], which wound healing rate [1] is on record?
**A.** 5.2% ± 1.8%

**Q.** And the “plasma IL-6 level” value [2]?
**A.** significantly higher

**Q.** And the “plasma IL-10 level” value [2]?
**A.** decreased

**Q.** What about the “plasma TNF-α level” value [2] of the same substance?
**A.** significantly higher
